Results on ten compounds are retold here after patent US11673878B2, “Benzazepine derivatives” (OTSUKA PHARMACEUTICAL CO., LTD., priority 2017, dated 2023).

In general, IC50 refers to the concentration that gives 50% inhibition. For orientation: AUC(0-inf) means the area under the concentration-time curve extrapolated to infinity. What is called Cmax is the maximum level reached in the sampled fluid or tissue. Usually Tmax stands for the time from dosing to the highest level.

The nature of series [1]: Metabolic stability test in human liver microsomes. Conditions: pH 7.4; human liver microsomes 1 mg/mL, test compound 1 μmol/L, NADPH and NADH, 37° C., n = 4; read-out: CLint (μL/min/mg) mean ± SD. The class given is in vitro ADME. How it is done: Reaction System and Incubation
According to methods of Obach and Jones, et al. (methods described in R. S. Obach, Drug Metab. Dispos. 1999 (27): 1350-1359 and H. Jones and J. B. Houston, Drug Metab. Dispos. 2004 (32): 973-982), the reaction system shown below was prepared and metabolic stabilities of test compounds (the present compounds and, tolvaptan) were evaluated using the reaction system shown below. Human liver microsomes purchased from Corning Inc. were used. Test compounds were dissolved in DMSO at the concentration of 10 mmol/L and then diluted with acetonitrile to prepare a 100 μmol/L solution for use in the test. The 100 μmol/L solutions were used in the experiment.
Human liver microsome 1 mg/mL
Co-factor (NADPH and NADH) 1 mmol/L each
Magnesium chloride 5 mmol/L
100 mmol/L Potassium phosphate buffer (pH 7.4)
The reaction mixture without co-factors was pre-incubated at 37° C. for 5 minutes, and then the reaction was initiated by the addition of the co-factors. The mixture was incubated for 0, 5, 10, 20, 30, and 60 minutes after the addition of the co-factors. An aliquot of the reaction mixture was removed and added to a methanol solution containing an internal standard (IS) and mixed to terminate the reaction at each predetermined time.
After the reaction was terminated, the mixture was separated by centrifugation and the supernatant was injected into a liquid chromatograph-tandem mass spectrometer (LC-MS/MS) to measure unchanged substances remained in the reaction system. The mass spectrometer was operated in a positive ion mode of the electrospray ionization (ESI) method. Unchanged substances and the IS were detected by multiple reaction monitoring (MRM) transitions using selected precursor and product ions set.
The remaining ratios of test compounds were calculated by the following equation. Remaining ratio=(Peak area ratio of a test compound to IS at t minutes after incubation)÷(Peak area ratio of a test compound to IS at 0 minute)
The slope of X-axis (the incubation time) and Y-axis (logarithm of the remaining ratio) was calculated by a non-linear least square method. Hepatic intrinsic clearance (CLint) was calculated by the following equation. CLint(μL/min/mg)=−(Slope(min^−1))÷1(mg/mL)×1000

In series [2] the target is T1, rat vasopressin V2 receptor (Rattus norvegicus, UniProt Q00788).
T1 construct: expressed in transfected cells; host or cells: CHO cells (rV2R-CHO)
The experiment in a line: Binding inhibition test for rat V2 receptor (3H-AVP, rV2R-CHO cells). The following applies: inhibition of 3H-AVP binding, 4° C., 2 hours, read-out: Binding affinity rV2 (IC50). On the procedure:
(§1) Various compounds were studied in binding affinities for vasopressin receptors with an indicator of binding inhibition of rat vasopressin V1a receptor and vasopressin V2 receptor of ^3H-arginine vasopressin (AVP) (NET800, available from PerkinElmer Inc., Life Sciences).
(2) Binding Inhibition Test for Rat V2 Receptor (rV2R)
Rat V2 receptor-expressed CHO cells (rV2R—CHO) were incubated on 10% FBS-containing DMEM/F12 in a 24-well plate, and each cell was washed with D-PBS twice. A reaction solution (D-PBS containing 0.1% BSA and 0.05% sodium azide) comprising a compound in various concentrations (0.3 nM to 100 nM) was added to each well, and a certain amount of ^3H-AVP was added thereto (100-fold dilution). Reactions were carried out at 4° C. for 2 hours on the plate. Then, each well was washed with D-PBS twice and 0.1N NaOH was added to each well. The cells were collected, and the radioactivity of ^3H-AVP was measured with a scintillation counter.
(§2) ^3H-AVP binding rate in the presence of a compound was calculated by the following equation. Binding rate (%)=(B−NSB)/(TB−NSB)×100 (B: Binding amount of ^3H-AVP in the presence of each compound, NSB: Binding amount of ^3H-AVP in the presence of 1 μM of unlabeled AVP, TB: Binding amount of ^3H-AVP in the absence of 1 μM of unlabeled AVP)

The target of series [3] is T2, rat vasopressin V1a receptor (Rattus norvegicus, UniProt P30560).
T2 construct: V1a receptor fractions derived from rat hepatic membrane; from tissue; host or cells: rat liver (hepatic membrane)
The experiment in a line: Binding inhibition test for rat V1a receptor (3H-AVP, rat hepatic membrane). Conditions: inhibition of 3H-AVP binding, rat hepatic membrane V1a receptor fractions, 4° C., 2 hours; read-out: Binding affinity rV1a (IC50). On the procedure:
as §1
(1) Binding Inhibition Test for Rat V1a Receptor (rV1aR)
50 μg of V1a receptor fractions derived from rat hepatic membrane were diluted with a reaction solution (100 mM Tris-HCl (pH 8.0), 0.1% BSA, 5 mM MgCl2, 1 mM EDTA) and added to each well of a 96-well plate. A compound was added to each well in various concentrations (0.3 nM to 100 nM), and ^3H-AVP was added thereto in the range of 1 nM to 3 nM. Reactions were carried out at 4° C. for 2 hours on the plate. Via receptor fractions were collected with a 96-well glass filter (Unifilter GF/B) after the reactions and washed with a washing solution (10 mM Tris-HCl (pH 8.0), 5 mM MgCl2, 1 mM EDTA) three times, and then the radioactivity of ^3H-AVP was measured with a scintillation counter.
as §2

Series [4] in a line: Pharmacokinetics study in mice, single oral dose. The following applies: mouse; male ICR mice, single-dose oral administration of 30 mg/kg, plasma. The class given is in vivo. How it is done: A pharmacokinetics (PK) study was performed using male ICR mice to compare the oral absorption properties of the present compounds with tolvaptan. A test compound was suspended in a 1% hydroxypropyl methylcellulose (HPMC) solution to be adjusted to the concentration of 4.5 mg/mL. The present compounds were used as the forms obtained in the above examples (including the amorphous form) for a test compound, or used after spray drying, if needed.
Male ICR mice (7-week old) were freely fed food and water and weighed on an electronic scale. Then, a test compound was orally administered at the dose of 30 mg/kg […]. After the oral administration, blood was collected from the abdominal vena cava under isoflurane anesthesia using a 1 mL heparinized syringe with a 26 G injection needle. Blood was separated by centrifugation at 4° C., 3000 rpm for 10 minutes to give plasma in a supernatant. The plasma concentration of a test compound was measured by LC-MS/MS.
The following PK parameters were calculated using the mean plasma concentrations of unchanged substances obtained from two animals at each time point.
Cmax: Maximum plasma concentration (μg/mL)
tmax: Time-to-maximum plasma concentration (h)
AUCinf: Area under the plasma concentration-time curve from administration to infinite time (μg h/mL)

T1 sequence (Q00788 whole entry): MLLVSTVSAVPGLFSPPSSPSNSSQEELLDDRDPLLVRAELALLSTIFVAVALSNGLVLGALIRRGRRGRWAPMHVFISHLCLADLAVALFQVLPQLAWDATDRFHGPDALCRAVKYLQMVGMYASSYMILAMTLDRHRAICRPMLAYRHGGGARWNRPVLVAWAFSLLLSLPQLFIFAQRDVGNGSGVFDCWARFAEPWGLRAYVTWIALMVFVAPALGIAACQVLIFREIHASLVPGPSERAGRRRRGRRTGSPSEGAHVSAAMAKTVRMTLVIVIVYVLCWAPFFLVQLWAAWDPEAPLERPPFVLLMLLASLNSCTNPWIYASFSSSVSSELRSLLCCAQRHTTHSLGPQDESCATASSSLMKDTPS
T2 sequence (P30560 whole entry): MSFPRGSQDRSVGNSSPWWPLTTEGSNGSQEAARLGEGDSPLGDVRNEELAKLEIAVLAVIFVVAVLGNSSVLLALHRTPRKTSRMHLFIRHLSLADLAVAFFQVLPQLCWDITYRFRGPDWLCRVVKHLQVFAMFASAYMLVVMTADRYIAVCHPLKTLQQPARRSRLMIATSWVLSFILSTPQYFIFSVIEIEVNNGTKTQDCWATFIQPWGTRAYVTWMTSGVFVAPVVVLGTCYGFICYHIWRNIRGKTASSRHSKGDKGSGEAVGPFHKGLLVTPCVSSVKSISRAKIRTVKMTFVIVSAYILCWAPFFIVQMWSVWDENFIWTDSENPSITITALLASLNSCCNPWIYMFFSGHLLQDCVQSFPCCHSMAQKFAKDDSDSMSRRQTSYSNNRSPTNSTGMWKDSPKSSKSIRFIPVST

For `O=C(Nc1ccc(C(=O)N2CCC(F)(F)C(O)(CO)c3cc(Cl)ccc32)cn1)c1ccccc1C(F)(F)F` (stereo not shown) [Example 2, N-{5-[7-chloro-4,4-difluoro-5-hydroxy-5-(hydroxymethyl)-2,3,4,5-tetrahydro-1H-1-benzazepine-1-carbonyl]pyridin-2-yl}-2-(trifluoromethyl)benzamide], the microsomal CLint at 1 μmol/L in series [1] is less than 4 µL/min/mg. For the same compound, the half-maximal inhibitory concentration (IC50) in series [2] worked out at 2.1 nM. The IC50 in series [3] was 3.4 nM. In addition, in series [4], the AUC(0-inf) was determined as 95700 ng·h/mL, the Cmax was 9230 ng/mL and the Tmax worked out at 1 h.
For the compound `O=C(Nc1ccc(C(=O)N2CCC(F)(F)C(O)(CO)c3cc(Cl)ccc32)cn1)c1cc(F)ccc1Cl` (stereo not shown) [Example 3, 2-chloro-N-{5-[7-chloro-4,4-difluoro-5-hydroxy-5-(hydroxymethyl)-2,3,4,5-tetrahydro-1H-1-benzazepine-1-carbonyl]pyridin-2-yl}-5-fluorobenzamide], the microsomal CLint at 1 μmol/L in series [1] was less than 4 µL/min/mg. Further, in series [2], the IC50 worked out at 2.1 nM. For the same compound, the IC50 in series [3] was 9.5 nM. Moreover, in series [4], the AUC(0-inf) amounted to 38900 ng·h/mL, the peak level (Cmax) was 4820 ng/mL and the Tmax amounted to 1 h.
On to `O=C(Nc1ccc(C(=O)N2CCC(F)(F)[C@](O)(CO)c3cc(Cl)ccc32)cn1)c1cc(F)ccc1Cl` [Example 15, 2-chloro-N-{5-[(5R)-7-chloro-4,4-difluoro-5-hydroxy-5-(hydroxymethyl)-2,3,4,5-tetrahydro-1H-1-benzazepine-1-carbonyl]pyridin-2-yl}-5-fluorobenzamide], for which, in series [1], the microsomal CLint at 1 μmol/L was less than 4 µL/min/mg. Further, the IC50 in series [2] was 1 nM. The IC50 in series [3] is 2.9 nM. Moreover, in series [4], the total exposure AUC(0-inf) was found to be 63100 ng·h/mL, the Cmax turned out to be 6180 ng/mL and the Tmax is 1 h.
In the case of `O=C(Nc1ccc(C(=O)N2CCC(F)(F)[C@](O)(CO)c3cc(Cl)ccc32)cc1)c1cc(F)ccc1Cl` [Example 23, 2-chloro-N-{4-[(5R)-7-chloro-4,4-difluoro-5-hydroxy-5-(hydroxymethyl)-2,3,4,5-tetrahydro-1H-1-benzazepine-1-carbonyl]phenyl}-5-fluorobenzamide], in series [1], the microsomal CLint at 1 μmol/L turned out to be 1.11 ± 2.21 µL/min/mg. Moreover, in series [2], the IC50 was 1 nM. In addition, the IC50 in series [3] was 2.6 nM. In addition, in series [4], the AUC(0-inf) is 71300 ng·h/mL, the Cmax worked out at 5420 ng/mL and the Tmax worked out at 4 h.
In the case of `O=C(Nc1ccc(C(=O)N2CCC(F)(F)[C@](O)(CO)c3cc(Cl)ccc32)cc1F)c1cc(F)ccc1Cl` [Example 24, 2-chloro-N-{4-[(5R)-7-chloro-4,4-difluoro-5-hydroxy-5-(hydroxymethyl)-2,3,4,5-tetrahydro-1H-1-benzazepine-1-carbonyl]-2-fluorophenyl}-5-fluorobenzamide], in series [1], the microsomal CLint at 1 μmol/L was less than 4 µL/min/mg. Moreover, the IC50 in series [2] was 1.5 nM. Further, the IC50 in series [3] turned out to be 2.7 nM. In addition, in series [4], the AUC(0-inf) is 44000 ng·h/mL, the highest level (Cmax) was 4080 ng/mL and the Tmax worked out at 4 h.
Regarding `O=C(Nc1ccc(C(=O)N2CCC(F)(F)[C@](O)(CO)c3cc(Cl)ccc32)cn1)c1ccc(Cl)cc1Cl` [Example 51, 2,4-dichloro-N-{5-[(5R)-7-chloro-4,4-difluoro-5-hydroxy-5-(hydroxymethyl)-2,3,4,5-tetrahydro-1H-1-benzazepine-1-carbonyl]pyridin-2-yl}benzamide], the microsomal CLint at 1 μmol/L in series [1] is less than 4 µL/min/mg. In addition, the IC50 in series [2] was 1.7 nM. The IC50 in series [3] worked out at 16.1 nM. For the same compound, in series [4], the AUC(0-inf) was determined as 53800 ng·h/mL, the highest level (Cmax) was 5070 ng/mL and the Tmax was determined as 1 h.
In the case of `O=C(Nc1ccc(C(=O)N2CCC(F)(F)[C@](O)(CO)c3cc(Cl)ccc32)cn1)c1cc(F)c(Cl)cc1Cl` [Example 52, 2,4-dichloro-N-{5-[(5R)-7-chloro-4,4-difluoro-5-hydroxy-5-(hydroxymethyl)-2,3,4,5-tetrahydro-1H-1-benzazepine-1-carbonyl]pyridin-2-yl}-5-fluorobenzamide], in series [1], the microsomal CLint at 1 μmol/L is less than 4 µL/min/mg. The IC50 in series [2] is 3 nM. For the same compound, in series [3], the IC50 was 8.8 nM. In addition, in series [4], the AUC(0-inf) was found to be 62700 ng·h/mL, the concentration peaked (Cmax) at 5570 ng/mL and the Tmax was 1 h.
Regarding `COc1cc(C(=O)N2CCC(F)(F)[C@](O)(CO)c3cc(Cl)ccc32)ccc1NC(=O)c1ccc(F)cc1Cl` [Example 58, 2-chloro-N-{4-[(5R)-7-chloro-4,4-difluoro-5-hydroxy-5-(hydroxymethyl)-2,3,4,5-tetrahydro-1H-1-benzazepine-1-carbonyl]-2-methoxyphenyl}-4-fluorobenzamide], in series [1], the microsomal CLint at 1 μmol/L came out at 1.81 ± 2.1 µL/min/mg. For the same compound, the IC50 in series [2] came out at 1.3 nM. For the same compound, the IC50 in series [3] came to 9.3 nM. In addition, in series [4], the AUC(0-inf) stood at 44900 ng·h/mL, the concentration peaked (Cmax) at 5890 ng/mL and the Tmax is 1 h.
For the compound `O=C(Nc1ccc(C(=O)N2CCC(F)(F)[C@](O)(CO)c3cc(Cl)ccc32)cn1)c1ccccc1-c1ccccc1` [Example 63, N-{5-[(5R)-7-chloro-4,4-difluoro-5-hydroxy-5-(hydroxymethyl)-2,3,4,5-tetrahydro-1H-1-benzazepine-1-carbonyl]pyridin-2-yl}-[1,1′-biphenyl]-2-carboxamide], in series [1], the microsomal CLint at 1 μmol/L turned out to be 3.1 ± 3.58 µL/min/mg. The IC50 in series [2] came to 1.1 nM. Besides, the IC50 in series [3] was 1.4 nM. Also, in series [4], the AUC(0-inf) was 14400 ng·h/mL, the highest concentration (Cmax) is 4440 ng/mL and the Tmax stood at 1 h.
For `Cc1ccccc1C(=O)Nc1ccc(C(=O)N2CCCC(O)c3cc(Cl)ccc32)c(C)c1` (stereo not shown) [Tolvaptan, reference compound], in series [1], the microsomal CLint at 1 μmol/L amounted to 105 ± 11 µL/min/mg. Moreover, in series [4], the AUC(0-inf) was found to be 1780 ng·h/mL, the highest level (Cmax) was 682 ng/mL and the Tmax came to 1 h.
